Measured values from patent US11952584B2, “Functional peptides having antimicrobial activity against phytopathogenic microorganisms” (TOYOTA JIDOSHA KABUSHIKI KAISHA, priority 2019, dated 2024).
Several values for one entry are separate records, joined by “and”; a condition that tells them apart may be missing. Equal entries are not always repeated. Where two headings read alike, the source gives them in different places.

Experiments:
Botrytis cinerea [1] = format: cell-based; conditions: 25° C., 1 day or 2 days
[2] = system: Colletotrichum destructivum; format: cell-based; conditions: 25° C., 1 day or 2 days
[3] = system: Colletotrichum orbiculare; format: cell-based; conditions: 25° C., 1 day or 2 days
Fusarium oxysporum = format: cell-based
Pyricularia oryzae = format: cell-based; conditions: 25° C., 1 day or 2 days
[4] = system: Colletotrichum destructivum; assay: Colletotrichum destructivum leaf inoculation test (Chinese cabbage leaf); format: in vivo; conditions: 25° C., 4 days, lesions by visual inspection
Source text: In the present example, a suspension comprising Colletotrichum destructivum and a peptide to be tested was dropped on a plant leaf, and lesions were then observed by visual inspection to evaluate the antimicrobial activity of the tested peptide. First, the pores of Colletotrichum destructivum were suspended in water to result in a spore concentration of 5×10^5 spores/ml, so as to prepare a water suspension of spores. Subsequently, peptides to be tested (TsORF18 (full length), TsORF18-40 a.a., and TsORF18-2) were each added to the water suspension of spores, so that the final concentration of the peptides to be tested became 0 μM, 1 μM, 10 μM or 100 μM. Thereafter, 10 μl each of the water suspension of spores containing the peptide to be tested was dropped on the front side and the back side of the leaf of Chinese cabbage (variety name: “Kigokoro 85”). In this condition, incubation was carried out at 25° C. for 4 days. Thereafter, the front and back sides of the leaf were observed by visual inspection.

[5] = system: plant pathogenic filamentous fungi; format: cell-based; conditions: summary of Table 3
Botrytis cinerea [6] = assay: Botrytis cinerea leaf inoculation test (tomato leaf); format: in vivo; conditions: peptide 100 μM; tomato leaf, 25° C., 2 days, lesions by visual inspection
Method: In the present example, a suspension comprising Botrytis cinerea and a peptide to be tested was dropped on a plant leaf, and lesions were then observed by visual inspection to evaluate the antimicrobial activity of the tested peptide. First, the pores of Botrytis cinerea were suspended in a potato dextrose broth (PDB) to result in a spore concentration of 5×10^5 spores/ml, so as to prepare a PDB suspension spore solution. Subsequently, a peptide to be tested (TsORF18-2) was added to the PDB suspension spore solution, so that the final concentration of the peptide to be tested became 0 μM, 1 μM, 10 μM or 100 μM. It is to be noted that, as peptides to be tested, TsORF18 (full length) and TsORF18-40 a.a. were also used in the same manner as that of TsORF18-2. TsORF18 (full length) was dissolved in DMSO and was then used. On the other hand, TsORF18-2 and TsORF18-40 a.a were each dissolved in Milli-Q water and were then used. Thereafter, 10 μl each of the PDB suspension spore solution containing the peptide to be tested was dropped on the front side and the back side of the leaf of tomato (variety name: “Ponte Rosa”). In this condition, incubation was carried out at 25° C. for 2 days. Thereafter, the front and back sides of the leaf were observed by visual inspection.

| Substance | Plate antimicrobial activity test Botrytis cinerea (level) (Botrytis cinerea [1]; peptide 1 μM) | Plate antimicrobial activity test Botrytis cinerea (level) (Botrytis cinerea [1]; peptide 10 μM) | Plate antimicrobial activity test Botrytis cinerea (level) (Botrytis cinerea [1]; peptide 100 μM) | Plate antimicrobial activity test Colletotrichum destructivum (level) ([2]; peptide 1 μM) | Plate antimicrobial activity test Colletotrichum destructivum (level) ([2]; peptide 10 μM) | Plate antimicrobial activity test Colletotrichum destructivum (level) ([2]; peptide 100 μM) | Plate antimicrobial activity test Collectotrichum orbiculare (level) ([3]; peptide 1 μM) | Plate antimicrobial activity test Collectotrichum orbiculare (level) ([3]; peptide 10 μM) | Plate antimicrobial activity test Collectotrichum orbiculare (level) ([3]; peptide 100 μM) | Plate antimicrobial activity test Fusarium oxysporum (level) (Fusarium oxysporum) | Plate antimicrobial activity test Pyricularia oryzae (level) (Pyricularia oryzae; peptide 1 μM) | Plate antimicrobial activity test Pyricularia oryzae (level) (Pyricularia oryzae; peptide 10 μM) | Plate antimicrobial activity test Pyricularia oryzae (level) (Pyricularia oryzae; peptide 100 μM) | Leaf inoculation test Chinese cabbage/Colletotrichum destructivum ([4]; peptide 10 μM) | Leaf inoculation test Chinese cabbage/Colletotrichum destructivum ([4]; peptide 100 μM) | germination inhibitory activity against plant pathogenic filamentous fungi (in words) [5] | Leaf inoculation test Tomato/Botrytis cinerea (Botrytis cinerea [6]) | Leaf inoculation test Chinese cabbage/Colletotrichum destructivum ([4]; peptide 1 μM) |
| --- | --- | --- | --- | --- | --- | --- | --- | --- | --- | --- | --- | --- | --- | --- | --- | --- | --- | --- |
| RKFWR (listed as Solanum lycopersicum) [TsORF18-2-5aa-12] | 0 | 0 | 3 | 0 | 0 | 3 | 0 | 0 | 2 | 3 and 0 | 0 | 0 | 0 | ∘ | ∘ | extremely excellent germination inhibitory activity |  |  |
| KFWRI (listed as Solanum lycopersicum) [TsORF18-2-5aa-13] | 0 | 0 | 3 | 0 | 0 | 3 | 0 | 0 | 3 | 3 and 0 | 0 | 0 | 1 | ∘ | ∘ | extremely excellent germination inhibitory activity |  |  |
| RTRKFWRI (listed as Solanum lycopersicum) [TsORF18-2-8aa-10] | 0 | 0 | 3 | 0 | 0 | 3 | 0 | 0 | 3 | 3 and 1 and 0 | 0 | 0 | 1 | ∘ | ∘ | extremely excellent germination inhibitory activity |  |  |
| TRKFWRIW (listed as Solanum lycopersicum) [TsORF18-2-8aa-11] | 0 | 0 | 3 | 0 | 0 | 3 | 0 | 0 | 3 | 3 and 0 | 0 | 0 | 0 | ∘ | ∘ | extremely excellent germination inhibitory activity | ∘ |  |
| KFWRIWKG (listed as Solanum lycopersicum) [TsORF18-2-8aa-13] | 0 | 0 | 3 | 0 | 0 | 3 | 0 | 0 | 3 | 3 and 2 and 0 | 0 | 0 | 0 | ∘ | ∘ | extremely excellent germination inhibitory activity | ∘ |  |
| FWRIWKGK (listed as Solanum lycopersicum) [TsORF18-2-8aa-14] | 0 | 0 | 3 | 0 | 0 | 3 | 0 | 0 | 3 | 3 and 0 | 0 | 0 | 0 | ∘ | ∘ | extremely excellent germination inhibitory activity |  | Δ |
| RKFWRIWK (listed as Solanum lycopersicum) [TsORF18-2-8aa-12] | 0 | 1 | 3 | 0 | 0 | 3 | 0 | 0 | 3 | 3 and 2 and 0 | 0 | 0 | 0 | ∘ | ∘ | extremely excellent germination inhibitory activity | ∘ | Δ |
